“Also recorded” adds a separate entry of the source.
Experiments:
MDA-MB-436 tumors = assay: microPET imaging with [18F]12, MDA-MB-436 xenograft tumors; format: in vivo, mice; conditions: baseline, 0-60 min post-tracer injection
Experimental: This example illustrates the visualization of tumor tissue in microPET in mice. MDA-MB-436 human breast cancer xenograft tumors in immune-deficient mice were visualized by PET using [^18F]12.
MDA-MB-436 and MDA-MB-231 human breast cancer cells were maintained in cell culture under standard conditions with 5% CO2 atmosphere using Eagle's minimum essential medium (with Earle's balanced salt solution and 2 mM L-glutamine) supplemented with 2 mM E-glutamine, 1 mM sodium pyruvate, 0.1 mM non-essential amino acids 2% vitamins for MEM, and 5% fetal bovine serum. Cells in exponential growth were trypsinized and harvested for tumor implantation. After counting, cells were re-suspended in ice-cold 1:1 Matrigel and PBS to give the desired concentration and held on ice.
Mature female athymic nu/nu mice from Charles River Laboratories are allowed to acclimate in an AALAC accredited housing facility for at least 1 week prior to tumor implantation for these serial imaging studies. Female nu/nu mice were implanted in the mammary fat pads (near the auxiliary lymph nodes) with ˜8×10^6 MDA-MB-436 breast cancer cells in ˜100 μL of 1:1 Matrigel:PBS. Imaging studies were conducted 2-3 weeks post implantation.
Tumor-bearing mice were placed in an induction chamber containing ˜2% isoflurane/oxygen and then secured to a custom double bed for placement of tail vein catheters; anesthesia was maintained via nose-cone at ˜1% isoflurane/oxygen for the dynamic imaging procedure. The mice were injected with 150-200 μCi of [^18F]12 and scanned for 0-60 min using Focus 220 and Inveon PET/CT scanners. The standard uptake values (SUVs) were generated from manually drawn regions of interests for tumors and surrounding ‘background’ tissue. Visualization of specific uptake was determined by comparison of baseline scans with images acquired by tracer injection 20 minutes after pre-treatment with the blocking agents olaparib (50 mg/kg, IP) or 12 (1 mg/kg, IP).

[1] = Organ biodistribution of [18F]WC-4-138 in athymic nude mice; format: in vivo
Experimental: This example illustrates biodistribution of Compound 12 ([^18F]WC-4-138) in mice. Eight week old, female, athymic nude mice (Harlan) were injected via tail vein with [^18F]WC4-138. Mice were sacrificed by cervical dislocation 5 or 30 minutes after IV tracer injection of 30 μCi, 1 or 2 hours after injection of 45 μCi, or 4 hours after injection of 60 μCi of [^18F]WC-4-138. The acetonitrile-soluble fractions of plasma or liver and the control parent compound were separated via reverse-phase high performance liquid chromatography (HPLC) and the radioactivity of each fraction was quantified. The percent parent compound of each sample was calculated as the portion of radioactivity associated with the HPLC fractions that contained the parent compound. Data are presented as mean±SD, n=3.
Four mice were sacrificed at each timepoint, with the exception of the 2 hour timepoint (n=3). Blood, heart, lung, muscle, liver, spleen, fat, adrenal glands, kidney, uterus, ovaries, bone, bone marrow, pancreas, stomach, small intestine, and large intestine were collected from each animal. All organs were blotted to remove excess blood, weighed, and counted in a Beckmann 6000 gamma counter. The percent injected dose per gram (% ID/g) of tissue was determined for each organ.

O=C1NCCn2c(-c3ccc(OCC[18F])cc3)nc3cccc1c32 [[^18F]12]
[18F]12 uptake in MDA-MB-436 tumors (microPET) (MDA-MB-436 tumors): increased uptake that was distinguishable from background; also recorded: progressively accumulated in the tumor; also recorded: accumulation of the radioactivity in these tumors
% ID/g, Adrenals ([1]; 5 min after IV injection): 11.80 +/− 0.46 % ID/g
% ID/g, Blood ([1]; 5 min after IV injection): 1.60 +/− 0.21 % ID/g
% ID/g, Bone ([1]; 5 min after IV injection): 3.40 +/− 0.74 % ID/g
% ID/g, Brain ([1]; 5 min after IV injection): 0.55 +/− 0.16 % ID/g
% ID/g, Fat ([1]; 5 min after IV injection): 1.16 +/− 0.49 % ID/g
% ID/g, Heart ([1]; 5 min after IV injection): 6.57 +/− 0.45 % ID/g
% ID/g, Kidney ([1]; 5 min after IV injection): 35.63 +/− 3.33 % ID/g
% ID/g, Liver ([1]; 5 min after IV injection): 12.50 +/− 1.08 % ID/g
% ID/g, Lower Large Intestine ([1]; 5 min after IV injection): 4.17 +/− 0.42 % ID/g
% ID/g, Lung ([1]; 5 min after IV injection): 11.89 +/− 0.89 % ID/g
% ID/g, Marrow ([1]; 5 min after IV injection): 0.06 +/− 0.02 % ID/g
% ID/g, Muscle ([1]; 5 min after IV injection): 2.05 +/− 0.48 % ID/g
% ID/g, Ovaries ([1]; 5 min after IV injection): 4.71 +/− 1.21 % ID/g
% ID/g, Pancress ([1]; 5 min after IV injection): 9.67 +/− 1.98 % ID/g
% ID/g, Small Intestine ([1]; 5 min after IV injection): 12.64 +/− 1.45 % ID/g
% ID/g, Spleen ([1]; 5 min after IV injection): 12.47 +/− 6.69 % ID/g
% ID/g, Stomach ([1]; 5 min after IV injection): 3.17 +/− 0.66 % ID/g
% ID/g, Thyroid ([1]; 5 min after IV injection): 4.18 +/− 1.18 % ID/g
% ID/g, Upper Large Intestine ([1]; 5 min after IV injection): 7.84 +/− 1.02 % ID/g
% ID/g, Uterus ([1]; 5 min after IV injection): 3.44 +/− 2.01 % ID/g
% ID/g, Adrenals ([1]; 30 min after IV injection): 5.18 +/− 0.94 % ID/g
% ID/g, Blood ([1]; 30 min after IV injection): 2.07 +/− 0.16 % ID/g
% ID/g, Bone ([1]; 30 min after IV injection): 4.49 +/− 0.34 % ID/g
% ID/g, Brain ([1]; 30 min after IV injection): 1.03 +/− 0.11 % ID/g
% ID/g, Fat ([1]; 30 min after IV injection): 1.22 +/− 0.25 % ID/g
% ID/g, Heart ([1]; 30 min after IV injection): 3.44 +/− 0.30 % ID/g
% ID/g, Kidney ([1]; 30 min after IV injection): 21.14 +/− 2.21 % ID/g
% ID/g, Liver ([1]; 30 min after IV injection): 8.24 +/− 0.62 % ID/g
% ID/g, Lower Large Intestine ([1]; 30 min after IV injection): 7.43 +/− 0.59 % ID/g
% ID/g, Lung ([1]; 30 min after IV injection): 5.33 +/− 0.48 % ID/g
% ID/g, Marrow ([1]; 30 min after IV injection): 0.11 +/− 0.02 % ID/g
% ID/g, Muscle ([1]; 30 min after IV injection): 2.39 +/− 0.15 % ID/g
% ID/g, Ovaries ([1]; 30 min after IV injection): 5.31 +/− 0.82 % ID/g
% ID/g, Pancress ([1]; 30 min after IV injection): 10.27 +/− 1.28 % ID/g
% ID/g, Small Intestine ([1]; 30 min after IV injection): 13.00 +/− 0.75 % ID/g
% ID/g, Spleen ([1]; 30 min after IV injection): 26.85 +/− 3.52 % ID/g
% ID/g, Stomach ([1]; 30 min after IV injection): 3.77 +/− 0.73 % ID/g
% ID/g, Thyroid ([1]; 30 min after IV injection): 4.03 +/− 0.28 % ID/g
% ID/g, Upper Large Intestine ([1]; 30 min after IV injection): 14.07 +/− 1.72 % ID/g
% ID/g, Uterus ([1]; 30 min after IV injection): 4.53 +/− 1.45 % ID/g
% ID/g, Adrenals ([1]; 60 min after IV injection): 3.51 +/− 1.08 % ID/g
% ID/g, Blood ([1]; 60 min after IV injection): 2.30 +/− 0.28 % ID/g
% ID/g, Bone ([1]; 60 min after IV injection): 5.21 +/− 0.40 % ID/g
% ID/g, Brain ([1]; 60 min after IV injection): 1.24 +/− 0.13 % ID/g
% ID/g, Fat ([1]; 60 min after IV injection): 1.16 +/− 0.45 % ID/g
% ID/g, Heart ([1]; 60 min after IV injection): 2.88 +/− 0.23 % ID/g
% ID/g, Kidney ([1]; 60 min after IV injection): 14.02 +/− 1.84 % ID/g
% ID/g, Liver ([1]; 60 min after IV injection): 6.50 +/− 0.52 % ID/g
% ID/g, Lower Large Intestine ([1]; 60 min after IV injection): 10.53 +/− 1.45 % ID/g
% ID/g, Lung ([1]; 60 min after IV injection): 3.99 +/− 0.29 % ID/g
% ID/g, Marrow ([1]; 60 min after IV injection): 0.13 +/− 0.04 % ID/g
% ID/g, Muscle ([1]; 60 min after IV injection): 2.21 +/− 0.31 % ID/g
% ID/g, Ovaries ([1]; 60 min after IV injection): 4.75 +/− 0.36 % ID/g
% ID/g, Pancress ([1]; 60 min after IV injection): 9.18 +/− 1.37 % ID/g
% ID/g, Small Intestine ([1]; 60 min after IV injection): 8.85 +/− 1.49 % ID/g
% ID/g, Spleen ([1]; 60 min after IV injection): 25.75 +/− 1.95 % ID/g
% ID/g, Stomach ([1]; 60 min after IV injection): 3.62 +/− 0.37 % ID/g
% ID/g, Thyroid ([1]; 60 min after IV injection): 3.32 +/− 0.19 % ID/g
% ID/g, Upper Large Intestine ([1]; 60 min after IV injection): 15.62 +/− 2.31 % ID/g
% ID/g, Uterus ([1]; 60 min after IV injection): 5.51 +/− 0.79 % ID/g
% ID/g, Adrenals ([1]; 120 min after IV injection): 2.69 +/− 0.44 % ID/g
% ID/g, Blood ([1]; 120 min after IV injection): 2.54 +/− 0.13 % ID/g
% ID/g, Bone ([1]; 120 min after IV injection): 6.56 +/− 0.80 % ID/g
% ID/g, Brain ([1]; 120 min after IV injection): 1.58 +/− 0.19 % ID/g
% ID/g, Fat ([1]; 120 min after IV injection): 1.07 +/− 0.11 % ID/g
% ID/g, Heart ([1]; 120 min after IV injection): 2.68 +/− 0.09 % ID/g
% ID/g, Kidney ([1]; 120 min after IV injection): 8.77 +/− 0.72 % ID/g
% ID/g, Liver ([1]; 120 min after IV injection): 4.58 +/− 0.29 % ID/g
% ID/g, Lower Large Intestine ([1]; 120 min after IV injection): 13.35 +/− 0.87 % ID/g
% ID/g, Lung ([1]; 120 min after IV injection): 3.17 +/− 0.28 % ID/g
% ID/g, Marrow ([1]; 120 min after IV injection): 0.07 +/− 0.01 % ID/g
% ID/g, Muscle ([1]; 120 min after IV injection): 2.07 +/− 0.11 % ID/g
% ID/g, Ovaries ([1]; 120 min after IV injection): 4.25 +/− 0.52 % ID/g
% ID/g, Pancress ([1]; 120 min after IV injection): 5.37 +/− 0.64 % ID/g
% ID/g, Small Intestine ([1]; 120 min after IV injection): 6.62 +/− 0.75 % ID/g
% ID/g, Spleen ([1]; 120 min after IV injection): 17.19 +/− 1.08 % ID/g
% ID/g, Stomach ([1]; 120 min after IV injection): 2.56 +/− 0.27 % ID/g
% ID/g, Thyroid ([1]; 120 min after IV injection): 3.46 +/− 0.10 % ID/g
% ID/g, Upper Large Intestine ([1]; 120 min after IV injection): 10.28 +/− 0.65 % ID/g
% ID/g, Uterus ([1]; 120 min after IV injection): 4.13 +/− 0.20 % ID/g
% ID/g, Adrenals ([1]; 240 min after IV injection): 1.74 +/− 0.34 % ID/g
% ID/g, Blood ([1]; 240 min after IV injection): 1.61 +/− 0.05 % ID/g
% ID/g, Bone ([1]; 240 min after IV injection): 9.29 +/− 1.17 % ID/g
% ID/g, Brain ([1]; 240 min after IV injection): 1.17 +/− 0.05 % ID/g
% ID/g, Fat ([1]; 240 min after IV injection): 0.62 +/− 0.44 % ID/g
% ID/g, Heart ([1]; 240 min after IV injection): 1.67 +/− 0.06 % ID/g
% ID/g, Kidney ([1]; 240 min after IV injection): 3.67 +/− 0.54 % ID/g
% ID/g, Liver ([1]; 240 min after IV injection): 2.43 +/− 0.25 % ID/g
% ID/g, Lower Large Intestine ([1]; 240 min after IV injection): 7.17 +/− 0.50 % ID/g
% ID/g, Lung ([1]; 240 min after IV injection): 2.03 +/− 0.43 % ID/g
% ID/g, Marrow ([1]; 240 min after IV injection): 0.04 +/− 0.01 % ID/g
% ID/g, Muscle ([1]; 240 min after IV injection): 1.35 +/− 0.09 % ID/g
% ID/g, Ovaries ([1]; 240 min after IV injection): 2.00 +/− 0.41 % ID/g
% ID/g, Pancress ([1]; 240 min after IV injection): 2.75 +/− 0.44 % ID/g
% ID/g, Small Intestine ([1]; 240 min after IV injection): 3.04 +/− 0.25 % ID/g
% ID/g, Spleen ([1]; 240 min after IV injection): 9.80 +/− 1.01 % ID/g
% ID/g, Stomach ([1]; 240 min after IV injection): 1.20 +/− 0.08 % ID/g
% ID/g, Thyroid ([1]; 240 min after IV injection): 3.23 +/− 0.49 % ID/g
% ID/g, Upper Large Intestine ([1]; 240 min after IV injection): 4.33 +/− 0.57 % ID/g
% ID/g, Uterus ([1]; 240 min after IV injection): 2.05 +/− 0.31 % ID/g

Source: US9993570B2, “Radiolabeled tracers for poly (ADP-ribose) polymerase-1 (PARP-1), methods and uses therefor” (Washington University, priority 2014, dated 2018)
